In data set [1] the test system is Human renal cortical epithelial cells. Nature of the data set: Primary cell cytotoxicity, MTS assay. Type of data set: cell-based. Conditions: 24 hrs or 72 hrs exposure, DAS181 various concentrations, 0.2% thimerosol, 1 mM CdCl2. From the text: (§1) Primary cryopreserved human renal cells (Proximal Tubule Epethelial and Cortical Epethelial cells) were thawed, plated, and propagated according to Cambrex’s recommended protocol. Both renal cell lines were thawed and plated at a seeding density of 2500 cells/cm^2 with Renal Epethelial Basal Medium (REBM) supplemented with Cambrex REGM SingleQuots® (Cambrex CC-4127); which includes recombinant human epidermal growth factor, insulin, GA-1000, 0.5% Fetal Bovine Serum, hydrocortisone, transferrin, epinephrine, and triiodothyronine (T3). The cells were allowed to adhere and equilibrate for 24 hours at 37°C with 5% CO2. […] All the renal cells were further subcultured and seeded into 10 tissue culture-coated 24 well plates per cell line at a seeding density of 2.5x10^3 cells/cm^2. Once the cells reached approximately 70% confluency the 24 well plates were used in cytotoxicity experiments using the REBM supplemented with the REGM SingleQuots®.
(§2) On Day 0 the cell media supernatants were initially collected for baseline controls, before adding fresh media supplemented with either PBS, DAS181 (indicated concentrations), or thimerosal (0.2%) or CdCl^2 (1mM) to serve as positive controls for cytotoxicity. All treatment groups were done in triplicate. Treatments were left on for either 24 hrs or 72 hrs. Subsequently, for the 24 hr exposure conditions fresh media without test article was added to all the wells every 24 hours on days 1-3 (24-72 hours post-treatment); a subset of the wells were used for MTS assay each day. For the 72 hr exposure conditions the media was only changed at 72 hrs, immediately prior to MTS assay. Renal cell media interfered with Lactate Dehydrogenase (LDH) and Alkaline Phosphatase (ALP) assays so these were not performed.
(§3) At each endpoint (24, 48, or 72 hrs) the old media was first replaced with fresh warm media (500uL/well) and the samples were then tested for cell viability using the CellTiter 96® Aqueous Non-Radioactive Cell Proliferation Assay (MTS) kit (Promega, Madison, WI). […] 100μL of each sample was then added to a 96 well plate and read for absorbance at 490 nm. A 1:5 dilution of MTS solution in growth media alone was used as the background. For data analysis, background values were subtracted from all sample values. Values were then normalized using the vehicle control as 100%. Each sample was compared to the vehicle control, via ANOVA with Bonferroni post-test, to determine if there was a statistically significant change in cell viability.

Data set [2] concerns Human renal proximal tubule cells. As to the kind of experiment: Primary cell cytotoxicity, MTS assay. Format: cell-based. Particulars: 24 hrs or 72 hrs exposure, DAS181 various concentrations, 0.2% thimerosol, 1 mM CdCl2.
Description: as §1, §2, §3

A further data set relates to A/St.Louis/630/09. Format: cell-based, IFV A (H1N1).
Another data set deals with A/Hawaii/21/07. Type of data set: cell-based, IFV A (H1N1).
For data set [3], the target named is NA enzymatic activity of A/Georgia/17/2006 WT (Influenza A virus (H1N1), UniProt A7UPL3). Nature of the data set: Chemiluminescent neuraminidase activity inhibition (NI) assay. Particulars: for IC50: A/Georgia/17/2006 WT reference virus, mean of triplicate analysis; for R/S: A/Georgia/17/2006 WT, NI assay. Type of data set: biochemical. The protocol:
(§4) The chemiluminescent neuraminidase activity inhibition (NI) assay was conducted using a commercially available kit, NA-Star (Applied Biosystems, Foster City, CA) as previously described. Oseltamivir carboxylate and zanamivir were used at 10 half-log dilutions (0.03 to 1000 nM). Values shown represent mean of triplicate analysis.

For a further data set, the system named is A/NewJersey/15/07. Type of data set: cell-based, IFV A (H1N1).
For the next data set, the system named is A/St.Louis/790/09. Type of data set: cell-based, IFV A (H1N1).
Another data set deals with A/St.Louis/758/09. Format: cell-based, IFV A (H1N1).
The subject of the next data set is A/St.Louis/746/09. Format: cell-based, IFV A (H1N1).
The subject of a further data set is A/St.Louis/764/09. Type of data set: cell-based, IFV A (H1N1).
In another data set the test system is A/St.Louis/539/09. Type of data set: cell-based, IFV A (H1N1).
The test system of the next data set is A/St.Louis/775/09. Type of data set: cell-based, IFV A (H1N1).
The subject of a further data set is A/HongKong/2637/04. Format: cell-based, IFV A (H1N1).
A further data set has as its system A/St.Louis/690/09. Format: cell-based, IFV A (H1N1).
Another data set relates to A/HongKong/2765/04. Type of data set: cell-based, IFV A (H1N1).
In the next data set the test system is A/St.Louis/792/09. Format: cell-based, IFV A (H1N1).
The target of data set [4] is NA enzymatic activity of A/St.Louis/792/09 (Influenza A virus, UniProt D0FH55). As to the kind of experiment: Chemiluminescent neuraminidase activity inhibition (NI) assay. Format: biochemical, IFV A (H1N1). Particulars: for R/S: NI assay; for IC50: mean of triplicate analysis. As to the method: as §4
Data set [5] deals with NA enzymatic activity of A/St.Louis/790/09 (Influenza A virus, UniProt D0FH54). The data set is described as above. Type of data set: biochemical, IFV A (H1N1). Conditions: for R/S: NI assay; for IC50: mean of triplicate analysis. The protocol: as §4
Data set [6] deals with NA enzymatic activity of A/St.Louis/539/09 (Influenza A virus, UniProt D0FH47). The description is as above. Particulars: for R/S: NI assay; for IC50: mean of triplicate analysis. Format: biochemical, IFV A (H1N1). The protocol:
as §4

In data set [7] the target is NA enzymatic activity of A/St.Louis/764/09 (Influenza A virus, UniProt D0FH52). The description is as above. Type of data set: biochemical, IFV A (H1N1). Conditions: for R/S: NI assay; for IC50: mean of triplicate analysis. The protocol:
as §4

The target of data set [8] is NA enzymatic activity of A/St.Louis/746/09 (Influenza A virus, UniProt D0FH50). The data set is described as above. Particulars: for R/S: NI assay; for IC50: mean of triplicate analysis. Type of data set: biochemical, IFV A (H1N1). As to the method:
as §4

The target in data set [9] is NA enzymatic activity of A/Hawaii/21/2007 (Influenza A virus (H1N1), UniProt B1AGI9). The data set is described as above. Type of data set: biochemical, IFV A (H1N1). Conditions: for R/S: A/Hawaii/21/2007, NI assay. The protocol:
as §4

In data set [10] the target is NA enzymatic activity of A/St.Louis/630/09 (Influenza A virus, UniProt D0FH48). The description is as above. Type of data set: biochemical, IFV A (H1N1). Particulars: for R/S: NI assay; for IC50: mean of triplicate analysis. As to the method: as §4
Data set [11] deals with NA enzymatic activity of A/St.Louis/690/09 (Influenza A virus, UniProt D0FH49). The description is as above. Type of data set: biochemical, IFV A (H1N1). Conditions: for R/S: NI assay; for IC50: mean of triplicate analysis. As to the method: as §4
Data set [12] concerns the target NA enzymatic activity of A/St.Louis/775/09 (Influenza A virus, UniProt D0FH53). The description is as above. Format: biochemical, IFV A (H1N1). Particulars: for R/S: NI assay; for IC50: mean of triplicate analysis. The protocol:
as §4

Data on four molecules can be found in publication PMC2770896, “Inhibition of Neuraminidase Inhibitor-Resistant Influenza Virus by DAS181, a Novel Sialidase Fusion Protein” (PLoS ONE, 2009).

Read-outs that look alike come from different tables or passages of the source.

On to `[Cl][Cd][Cl]` [CdCl2, cadmium chloride], for which the “Cell viability (MTS) vs PBS” value in [1] and in data set [2] was “significant reduction in cell viability” each time.
Consider `CCC(CC)O[C@@H]1C=C(C(=O)O)C[C@H](N)[C@H]1NC(C)=O` [oseltamivir, oseltamivir carboxylate], for which the EC50 in the data set on A/St.Louis/630/09 (read-out: EC50) is over 400000 nM; in the data set on A/Hawaii/21/07 (read-out: EC50), over 285000 nM; with A/NewJersey/15/07 (read-out: EC50), over 400000 nM; in the data set with A/St.Louis/790/09 (read-out: EC50), over 304000 nM; in the data set on A/St.Louis/758/09 (read-out: EC50) it was over 400000 nM; in the data set on A/St.Louis/746/09 (read-out: EC50) it was over 400000 nM. Besides, the EC50 in the data set on A/St.Louis/764/09 (read-out: EC50) is over 400000 nM; with A/St.Louis/539/09 (read-out: EC50), over 400000 nM; with A/St.Louis/775/09 (read-out: EC50), over 320000 nM; with A/HongKong/2637/04 (read-out: EC50), 3270 ± 1320 nM; in the data set with A/St.Louis/690/09 (read-out: EC50), over 400000 nM; in the data set on A/HongKong/2765/04 (read-out: EC50), 2920 ± 1000 nM. Moreover, the EC50 in the data set on A/St.Louis/792/09 (read-out: EC50) was over 400000 nM. Further, the IC50 in [3] was found to be 0.37 nM; in data set [4], 91.5 nM; in data set [5], 87.8 nM; in [6] it was 84.9 nM; in data set [7], 103 nM; in [8], 89.9 nM. In addition, the IC50 worked out at 110 nM in [9] (A/Hawaii/21/2007 reference virus, mean of triplicate analysis); 224 nM in data set [10]; 178 nM in data set [11]; 91.8 nM in data set [12]. Further, the R/S entry in data set [3] is “S”; in [4], “R”; in data set [5], “R”; in [6], “R”; in data set [7], “R”; in [8], “R”. For the same molecule, the R/S entry in data set [9], in data set [10], in data set [11] and in [12] was “R” in each case.
On to `C[CH2][Hg][S]c1ccccc1C(=O)[O-].[Na+]` [thimerosol], for which the “Cell viability (MTS) vs PBS” value in [1] and in [2] was “significant reduction in cell viability” throughout.
On to `CC(=O)N[C@H]1[C@H]([C@H](O)[C@H](O)CO)OC(C(=O)O)=C[C@@H]1N=C(N)N` [zanamivir], for which the EC50 in the data set on A/St.Louis/630/09 (read-out: EC50) is 62100 ± 34800 nM; in the data set on A/St.Louis/630/09 (read-out: EC50 Zanamivir), 62100 ± 34800 nM; in the data set with A/Hawaii/21/07 (read-out: EC50), 45000 ± 22500 nM; with A/Hawaii/21/07 (read-out: EC50 Zanamivir), 45000 ± 22500 nM; with A/NewJersey/15/07 (read-out: EC50), 7020 ± 2460 nM; in the data set on A/NewJersey/15/07 (read-out: EC50 Zanamivir), 7020 ± 2460 nM. For the same molecule, the EC50 with A/St.Louis/790/09 (read-out: EC50) stood at 3120 ± 1830 nM; with A/St.Louis/790/09 (read-out: EC50 Zanamivir), 3120 ± 1830 nM; in the data set on A/St.Louis/758/09 (read-out: EC50), 7060 ± 2840 nM; with A/St.Louis/758/09 (read-out: EC50 Zanamivir), 7060 ± 2840 nM; in the data set on A/St.Louis/746/09 (read-out: EC50), 1960 ± 420 nM; in the data set with A/St.Louis/746/09 (read-out: EC50 Zanamivir) it was 1960 ± 420 nM. In addition, the EC50 in the data set on A/St.Louis/764/09 (read-out: EC50) is over 273000 nM; in the data set on A/St.Louis/764/09 (read-out: EC50 Zanamivir), over 273000 nM; with A/St.Louis/539/09 (read-out: EC50), over 332000 nM; with A/St.Louis/539/09 (read-out: EC50 Zanamivir), over 332000 nM; with A/St.Louis/775/09 (read-out: EC50) it was 1200 ± 360 nM; in the data set on A/St.Louis/775/09 (read-out: EC50 Zanamivir), 1200 ± 360 nM. For the same molecule, the EC50 with A/HongKong/2637/04 (read-out: EC50) is 1820 ± 460 nM; in the data set on A/HongKong/2637/04 (read-out: EC50 Zanamivir), 1820 ± 460 nM; in the data set on A/St.Louis/690/09 (read-out: EC50), over 182000 nM; with A/St.Louis/690/09 (read-out: EC50 Zanamivir), over 182000 nM; in the data set with A/HongKong/2765/04 (read-out: EC50), 4170 ± 530 nM; with A/HongKong/2765/04 (read-out: EC50 Zanamivir), 4170 ± 530 nM. Further, the EC50 in the data set with A/St.Louis/792/09 (read-out: EC50) and in the data set on A/St.Louis/792/09 (read-out: EC50 Zanamivir) was over 156000 nM in each case. Also, the IC50 in data set [3] is 0.44 nM; in data set [4], 0.28 nM; in data set [5], 0.29 nM; in data set [6] it was 0.28 nM; in data set [7], 0.3 nM; in data set [8], 0.3 nM. Besides, the IC50 in [10] is 0.48 nM; in data set [11] it was 0.44 nM; in [12], 0.33 nM. Also, the R/S result in [3], in [4], in data set [5], in [6], in data set [7] and in [8] was “S” throughout. Besides, the R/S entry in data set [9], in data set [10], in data set [11] and in data set [12] was “S” throughout.
